Test results: patent US20110034434A1, “PRODRUGS OF FUSED HETEROCYCLIC INHIBITORS OF D-AMINO ACID OXIDASE” (SEPRACOR INC., priority 2009, published 2011)

How the values were obtained:
D-serine = assay: PK-PD evaluation in rats: D-serine levels in cerebellum after oral dosing; format: in vivo; details: rat cerebellum, 6 hours after PO dosing, dose normalized to 10 mg/kg of the acid; mean ± spread (n)
Description: Rats (Harlan male Sprague) (N=3) were dosed orally with an amount of test compound, suspended in 45% (w/v) hydroxy-β-cyclodextrin vehicle, dose normalized to 10 mg/kg of the corresponding carboxylic acid. Additional male cannulated rats (N=3) were dosed orally with the parent carboxylic acid, suspended in 45% (w/v) hydroxy-β-cyclodextrin vehicle, at 10 mg/kg. Animals were sacrificed at pre-determined time points (e.g., 0.5, 2 and/or 6 hours post administration) with an N=3 at each time point. At sacrifice, trunk blood was collected into tubes containing potassium EDTA, which were then centrifuged to permit isolation of plasma. The cerebellum was dissected from each animal. Plasma and cerebellum samples were stored at −80° C. until samples were analyzed using a SCIEX API2000 or SCIEX API5000 LC/MS/MS. Samples were analyzed for the amount of corresponding parent acid, D-serine, and/or the amount of test compound.
Conversion of test compounds to 4H-furo[3,2-b]pyrrole-5-carboxylic acid (“acid”; 77) in rats was evaluated according to General Procedure 12. 4H-furo[3,2-b]pyrrole-5-carboxylic acid and D-serine levels in plasma and cerebellum were measured. Animals were sacrificed at 6 hours post administration. In Table 6, “[D-serine] cerebellum” refers to D-serine levels, in nmol/g, in the rat cerebellum. In Table 6, “[acid] cerebellum” refers to the concentration, in μM, of the 4H-furo[3,2-b]pyrrole-5-carboxylic acid in the cerebellum. In Table 6, “[acid] plasma” refers to the concentration, in μM, of the 4H-furo[3,2-b]pyrrole-5-carboxylic acid in the plasma. The row labeled “acid”, denotes the data obtained from dosing 4H-furo[3,2-b]pyrrole-5-carboxylic acid. The row labeled “vehicle” denotes the data obtained from dosing vehicle, and the remaining row in the table denote the data obtained from dosing the test compounds.

[1] = Hydrolysis rate of test compounds in pH 7.4 and 2.0 aqueous solution; format: physicochemical; details: HPLC; for Hydrolysis rate at pH 7.4: 0.05 M sodium phosphate buffer pH 7.4, over 6 hours; for Hydrolysis rate at pH 2.0: water adjusted with phosphoric acid to pH 2.0, over 2 hours
Description: 10 mM DMSO solutions of test compounds were diluted with a 0.05 M sodium phosphate buffer (pH 7.4) or water adjusted with phosphoric acid to pH 2.0, with a final concentration of 0.013 mg/mL. Samples were analyzed over either 2 or 6 hours, by HPLC.
The amount of test compound and the corresponding acid were determined. The rate of conversion of the test compound was calculated based on formation of the corresponding acid and loss of parent.
The rate of hydrolysis of test compounds to 4H-furo[3,2-b]pyrrole-5-carboxylic acid was evaluated in pH 7.4 aqueous solution over 6 hours, and in pH 2.0 aqueous solution over 2 hours, according to General Procedure 14.

SMILES	[D-serine] cerebellum (D-serine)	Hydrolysis rate at pH 7.4 [1]	Hydrolysis rate at pH 2.0 [1]
O=C(OCC1CCCO1)c1cc2occc2[nH]1 (stereo not drawn) [compound 10, (tetrahydrofuran-2-yl)methyl 4H-furo[3,2-b]pyrrole-5-carboxylate]	19 ± 2.0(6) nmol/g	No hydrolysis	No hydrolysis
O=C(OCC(=O)N1CCC1)c1cc2occc2[nH]1 [compound 19, 2-(azetidin-1-yl)-2-oxoethyl 4H-furo[3,2-b]pyrrole-5-carboxylate]	17 ± 0.7(3) nmol/g	No hydrolysis	No hydrolysis
CN(C)C(=O)COC(=O)c1cc2occc2[nH]1 [compound 20, 2-(dimethylamino)-2-oxoethyl 4H-furo[3,2-b]pyrrole-5-carboxylate]	19 ± 0.8(6) nmol/g	No hydrolysis	No hydrolysis
O=C(OCC(=O)N1CCOCC1)c1cc2occc2[nH]1 [compound 21, 2-morpholino-2-oxoethyl 4H-furo[3,2-b]pyrrole-5-carboxylate]	19 ± 1.0(6) nmol/g	No hydrolysis	No hydrolysis
O=C(OCCN1CCOCC1)c1cc2occc2[nH]1 [compound 30, 2-morpholinoethyl 4H-furo[3,2-b]pyrrole-5-carboxylate]	14 ± 1.2(3) nmol/g	No hydrolysis	No hydrolysis
CC(OC(=O)c1cc2occc2[nH]1)OC(=O)C(C)C (stereo not drawn) [compound 35, 1-(isobutyryloxy)ethyl 4H-furo[3,2-b]pyrrole-5-carboxylate]	16 ± 0.9(3) nmol/g	3.46%/hr	–
CC(OC(=O)OC1CCCCC1)OC(=O)c1cc2occc2[nH]1 (stereo not drawn) [compound 39, 1-(cyclohexyloxycarbonyloxy)ethyl 4H-furo[3,2-b]pyrrole-5-carboxylate]	17 ± 2.6(3) nmol/g	0.21%/hr	–
Cc1oc(=O)oc1COC(=O)c1cc2occc2[nH]1 [compound 72, (5-methyl-2-oxo-1,3-dioxol-4-yl)methyl 4H-furo[3,2-b]pyrrole-5-carboxylate]	21 ± 3.5(9) nmol/g	0.20%/hr	No hydrolysis
O=C(OC1OC(=O)c2ccccc21)c1cc2occc2[nH]1 (stereo not drawn) [compound 74, 3-oxo-1,3-dihydroisobenzofuran-1-yl 4H-furo[3,2-b]pyrrole-5-carboxylate]	13 ± 1.2(3) nmol/g	–	–
O=C(OCCl)c1cc2occc2[nH]1 [compound 76, chloromethyl 4H-furo[3,2-b]pyrrole-5-carboxylate]	12 ± 1.5(3) nmol/g	–	–
